This note sets out measurements from article PMC10401666 (RSC Advances, 2023).

For one assay, the system named is HepG2. In words: MTT anti-proliferative assay, HepG2. It counts as cell-based, human. The following applies: mean of three experiments.
Another assay has as its system IL6. In words: IL6 level in MCF-7 cells. It counts as cell-based, human.
Another assay relates to caspase-9. In words: Caspase-9 level in MCF-7 cells. The following applies: MCF-7, 10.17 μM. It counts as cell-based, human.
A further assay concerns caspase-8. Nature of the assay: Caspase-8 level in MCF-7 cells. It counts as cell-based, human. The following applies: MCF-7, 10.17 μM.
The next assay relates to BAX. Nature of the assay: BAX level in MCF-7 cells. It counts as cell-based, human. Particulars: MCF-7, 10.17 μM.
A further assay relates to Bcl-2. Nature of the assay: Bcl-2 level in MCF-7 cells. It counts as cell-based, human. The following applies: MCF-7, 10.17 μM.
The test system of assay [1] is MCF-7 cells. In words: Cell cycle analysis by flow cytometry. Particulars: MCF-7, 10.17 μM, 72 h. It counts as cell-based, human.
The test system of the next assay is MCF-7. Nature of the assay: MTT anti-proliferative assay, MCF-7. It counts as cell-based. Particulars: Homo sapiens, MCF7, read-out: IC50 MCF-7.
The subject of a further assay is TNF-α. In words: TNF-α level in MCF-7 cells. It counts as cell-based, human.
In assay [2] the test system is MCF-7 cells. In words: Apoptosis assay, annexin V / PI flow cytometry. Particulars: MCF-7, 10.17 μM, 72 h. It counts as cell-based, human.
In the next assay the target is VEGFR-2 (Homo sapiens, UniProt P35968). In words: biochemical.
Setting [3] is: Homo sapiens, HepG2, read-out: IC50 HepG2, MTT assay.

SMILES strings stand for the structures. Read-outs that look alike come from different tables or passages of the source.

Sequence of VEGFR-2 (P35968 20-1356): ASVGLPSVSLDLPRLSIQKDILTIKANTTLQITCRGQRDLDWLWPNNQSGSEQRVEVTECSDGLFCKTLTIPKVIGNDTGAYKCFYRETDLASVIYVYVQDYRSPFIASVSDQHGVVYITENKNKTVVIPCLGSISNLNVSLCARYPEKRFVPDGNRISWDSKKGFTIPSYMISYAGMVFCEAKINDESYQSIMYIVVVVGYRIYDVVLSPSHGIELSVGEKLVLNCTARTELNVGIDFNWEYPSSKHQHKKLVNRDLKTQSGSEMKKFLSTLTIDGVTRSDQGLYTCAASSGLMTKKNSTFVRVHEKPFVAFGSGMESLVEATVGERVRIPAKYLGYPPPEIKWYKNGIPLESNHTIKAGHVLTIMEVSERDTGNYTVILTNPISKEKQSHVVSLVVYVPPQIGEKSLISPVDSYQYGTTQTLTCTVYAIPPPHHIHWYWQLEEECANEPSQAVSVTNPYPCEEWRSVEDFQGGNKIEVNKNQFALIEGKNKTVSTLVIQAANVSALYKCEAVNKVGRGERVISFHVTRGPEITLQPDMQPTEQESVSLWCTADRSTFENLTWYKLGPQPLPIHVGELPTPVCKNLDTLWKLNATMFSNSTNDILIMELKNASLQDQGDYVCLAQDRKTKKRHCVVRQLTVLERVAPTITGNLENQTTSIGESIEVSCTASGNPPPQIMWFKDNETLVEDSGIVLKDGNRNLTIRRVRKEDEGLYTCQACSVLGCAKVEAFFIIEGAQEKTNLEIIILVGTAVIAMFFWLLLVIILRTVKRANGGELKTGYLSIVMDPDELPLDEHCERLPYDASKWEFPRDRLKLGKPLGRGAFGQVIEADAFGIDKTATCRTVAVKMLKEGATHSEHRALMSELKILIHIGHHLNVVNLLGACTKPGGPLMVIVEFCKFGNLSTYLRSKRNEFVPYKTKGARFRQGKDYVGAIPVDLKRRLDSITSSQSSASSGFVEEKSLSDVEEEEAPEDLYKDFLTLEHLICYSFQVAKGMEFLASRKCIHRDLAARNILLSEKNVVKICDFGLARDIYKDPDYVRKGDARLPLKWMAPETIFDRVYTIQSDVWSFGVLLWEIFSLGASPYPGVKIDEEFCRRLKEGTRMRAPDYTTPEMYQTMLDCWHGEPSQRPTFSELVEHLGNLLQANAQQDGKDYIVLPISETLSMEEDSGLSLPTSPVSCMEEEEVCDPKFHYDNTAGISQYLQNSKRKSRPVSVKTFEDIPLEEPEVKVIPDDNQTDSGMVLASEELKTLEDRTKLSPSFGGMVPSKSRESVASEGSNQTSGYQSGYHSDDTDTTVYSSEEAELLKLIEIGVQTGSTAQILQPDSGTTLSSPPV

Consider `O=C(CSc1nnc(Cn2cnc3sc4c(c3c2=O)CCCC4)o1)N1CCCCC1` [Compound 18, 3-((5-((2-Oxo-2-(piperidin-1-yl)ethyl)thio)-1,3,4-oxadiazol-2-yl)methyl)-5,6,7,8-tetrahydrobenzo[4,5]thieno[2,3-d]pyrimidin-4(3H)-one], for which, in the assay on HepG2 (setting [3]), the IC50 was 24.5 µM. In addition, the IC50 in the assay with HepG2 (read-out: IC50 HepG2, MTT assay) amounted to 24.3 ± 2.08 µM. The “IL6 level lower than control” value in the assay on IL6 stood at 2.5 times. This compound also registered an IL6 level in the assay on IL6 (control = 1) of 0.393. The “Caspase-9 level increase vs control” value in the assay with caspase-9 is given as 5.4 fold. Besides, the “Protein expression Caspase-9” value with caspase-9 (control = 1) was found to be 5.422. In the assay on caspase-8, the “Caspase-8 level increase vs control” value came out at 2.6 fold. Also, the “Protein expression Caspase-8” value in the assay on caspase-8 (control = 1) is 2.607. Also, the “BAX level increase vs control” value in the assay with BAX came out at 3.6 fold. The “Protein expression BAX” value with BAX (control = 1) is 3.669. The “Bcl-2 level decrease vs control” value in the assay on Bcl-2 was found to be 3.1 fold. Moreover, the “Protein expression Bcl-2” value with Bcl-2 (control = 1) was determined as 0.315. In addition, in the assay on MCF-7 cells [1], the “Cell cycle distribution (%) % G2/M” value is 15.4%, the “Cell cycle distribution (%) %G0–G1” value amounted to 56.46% and the “Cell cycle distribution (%) %S” value is reported as 28.14%. Also, in the assay with MCF-7, the IC50 was 10.2 ± 1.01 µM. Besides, in the assay on TNF-α, the “TNF-α level lower than control” value was found to be 2.9 times. In the assay with TNF-α (control = 1), the TNF-α level is reported as 0.335. Also, in the assay on MCF-7 cells [2], the “Apoptosis induced (early + late)” value is recorded as 23.35%, the Early apoptosis was found to be 15.96%, the Late apoptosis came to 7.39% and the Necrosis is on record as 2.41. Also, in the assay with MCF-7 cells [2], the “Total (cell death)” value was 25.76.
For the compound `O=C(CSc1nnc(Cn2cnc3sc4c(c3c2=O)CCCC4)o1)Nc1c([N+](=O)[O-])cccc1[N+](=O)[O-]` [Compound 19, N-(2,6-Dinitrophenyl)-2-((5-((4-oxo-5,6,7,8-tetrahydrobenzo[4,5]thieno[2,3-d]pyrimidin-3(4H)-yl)methyl)-1,3,4-oxadiazol-2-yl)thio)acetamide], the figures for the IC50 with HepG2 (setting [3]), with MCF-7 and at VEGFR-2 were 31.8 ± 1.15 µM, 16.5 ± 1.16 µM and 290 ± 7 nM, respectively.
`O=C(CSc1nnc(Cn2cnc3sc4c(c3c2=O)CCCC4)o1)Nc1ccc(Cl)cn1` [Compound 20, N-(5-Chloropyridin-2-yl)-2-((5-((4-oxo-5,6,7,8-tetrahydrobenzo[4,5]thieno[2,3-d]pyrimidin-3(4H)-yl)methyl)-1,3,4-oxadiazol-2-yl)thio)acetamide]: the results for the IC50 with HepG2 (setting [3]) and in the assay with MCF-7 were 4.84 ± 0.38 µM and 5.38 ± 0.45 µM, respectively.
As for `O=C(CSc1nnc(Cn2cnc3sc4c(c3c2=O)CCCC4)o1)Nc1nccs1` [Compound 21, 2-((5-((4-Oxo-5,6,7,8-tetrahydrobenzo[4,5]thieno[2,3-d]pyrimidin-3(4H)-yl)methyl)-1,3,4-oxadiazol-2-yl)thio)-N-(thiazol-2-yl)acetamide], the values for the IC50 in the assay on HepG2 (setting [3]), with MCF-7 and against VEGFR-2 were 11.8 ± 1.05 µM, 6.31 ± 0.16 µM and 420 ± 8 nM, respectively.
As to `O=C(CSc1nnc(Cn2cnc3sc4c(c3c2=O)CCCC4)o1)Nc1nc2ccccc2s1` [Compound 22, N-(Benzo[d]thiazol-2-yl)-2-((5-((4-oxo-5,6,7,8-tetrahydrobenzo[4,5]thieno[2,3-d]pyrimidin-3(4H)-yl)methyl)-1,3,4-oxadiazol-2-yl)thio)acetamide], the IC50 in the assay on HepG2 (setting [3]) turned out to be 5.51 ± 0.25 µM; with MCF-7, 5.73 ± 0.18 µM.
Take `CNC(=O)c1cc(Oc2ccc(NC(=O)Nc3ccc(Cl)c(C(F)(F)F)c3)cc2)ccn1` [Sorafenib, reference compound]: the values for the IC50 in the assay with HepG2 (setting [3]) and in the assay on MCF-7 were 13.3 ± 0.3 µM and 9.98 ± 0.6 µM, respectively.
